Reference: article PMC8955377, “Greener Synthesis of Antiproliferative Furoxans via Multicomponent Reactions” (Molecules, 2022)
Like-named read-outs stand apart in the source and are kept apart here.

Key:
HaCaT cells [1] = assay: Cytotoxicity in non-cancer keratinocytes, sulforhodamine B assay; format: cell-based; conditions: HaCaT human keratinocytes, 0.4–100 µM, SRB; mean (±SEM)
Description: As a first approximation of the safety profile of the synthesized compounds and to determine the cytotoxic selectivity against cancer cells, the antiproliferative activity in non-cancer cells was studied. This evaluation was carried out in human keratinocyte HaCaT cells with 0.4–100 µM of the test compounds using the sulforhodamine B assay. The selectivity index (SI) was calculated for these compounds by dividing the GI50 for HaCaT by the GI50 for each cancer cell line. […] The derivatives Ugi-Fx (8a) and 12e stand out, with selectivity indices of 14.5 and 10.8, respectively. […] Concerning the LNCaP prostate cancer cell line, as for the reference drug, no selectivity was observed. […] Therefore, this new GBB-furoxan derivative can be a starting point in the design of new structures with improved selectivity.
(§1) The T24 cells were grown in McCoy’s 5A (Biological Industries) supplemented with 10% FBS (Capricorn Scientific). The cells were passaged twice per week, and the culture medium was changed with the same frequency. The LNCaP cells were maintained in RPMI media (Biological Industries) supplemented with 10% FBS (Capricorn Scientific) and 10% of its own conditioned medium (complete media). The cells were passaged once per week, and the medium was changed with the same frequency. The HaCaT cells (immortalized human keratinocytes) were cultured in Dulbecco’s modified Eagle medium (Biological Industries) supplemented with 10% FBS (Capricorn Scientific). The cells were passaged twice per week, and the medium was changed with the same frequency. The cell cultures were maintained under a humidified 5% CO2 atmosphere at 37 °C.
(§2) For viability assays, cells were treated with a 0.25% Trypsin–0.05% EDTA solution and plated in 96-well plates in complete medium the day before the experiment. The cells were seeded in a 96-well plate at densities of 8 × 10^3 cells per well for T24 cells, 12.5 × 10^3 cells per well for LNCaP cells, and 10 × 10^3 cells per well for HaCaT cells. The cultures were allowed to attach for 24 h in a humidified 5% CO2 atmosphere at 37 °C. Then, the cells were treated with increasing concentrations of the compounds (0.4–100.0 µM) prepared in complete medium using stock solutions in DMSO and were kept for 48 h in a CO2 incubator. Wells with only media or 0.5% DMSO were added as controls. The antiproliferative activity of the compounds was assayed using the SRB method in at least three independent experiments.

LNCaP cells = assay: Antiproliferative activity, sulforhodamine B assay, LNCaP prostate cancer cells; format: cell-based, human; conditions: 48 h, SRB, mean (±SEM)
Description: (§3) In vitro antiproliferative activity of the compounds was determined in cells derived from bladder cancer (T24) and prostate cancer (LNCaP). The cells were incubated in the presence of the compounds for 48 h. The antiproliferative activity was determined using the sulforhodamine B assay. The results were expressed as GI50, which is the drug concentration resulting in a 50% reduction of cellular net growth when compared with the values of untreated control cells. The standard anticancer drug cisplatin was used as a positive control, and furoxan 3 and 11a were also included as ⋅NO donor reference compounds. The results are summarized in Table 2 for the Ugi product 7a, Ugi-Fx (8a) and 8b–g Ugi-furoxan derivatives, and GBB product 10 and 12a–e GBB-furoxan derivatives.
as §1, §2

T24 cells [2] = assay: Antiproliferative activity, sulforhodamine B assay, T24 bladder cancer cells; format: cell-based, human; conditions: SRB, mean (±SEM)
Description: as §3, §1, §2

WiDr (Colon) = test system: WiDr (Colon); set-up: method as in PMID 31356736; conditions: cited from earlier work
A549 (Lung) = test system: A549 (Lung); set-up: method as in PMID 31356736; conditions: cited from earlier work
HBL-100 (Breast) = test system: HBL-100 (Breast); set-up: method as in PMID 31356736; conditions: cited from earlier work
T-47D (Breast) = test system: T-47D (Breast); set-up: method as in PMID 31356736; conditions: cited from earlier work
T24 cells [3] = assay: Antiproliferative activity with hemoglobin (NO scavenger), SRB assay; format: cell-based, human; conditions: Hb 0 or 50 µM 1 h pretreatment, compounds 10 µM, 48 h, Figure 4
Description: In this context, we next decided to study the effect of ·NO on their antiproliferative activity against T24 cells after incubation with an ·NO scavenger (Hb, hemoglobin). For this purpose, T24 cells were pretreated for 1 h with 0 or 50 µM of Hb and then the ·NO-donor compounds were added at 10 µM for 48 h. […] However, while for some compounds, such as 8d, ·NO release seems to be crucial for the antiproliferative activity, for others, such as Ugi-Fx (8a), other mechanisms would account for its anticancer effect. It is well-known that the action of 3-phenylsulfonylfuroxan derivatives is connected to ⋅NO release due to their interaction with free intracellular thiols or thiol groups of proteins. However, this action may also involve a covalent bond to thiol biomolecules with the concomitant displacement of the phenylsulfonyl group, leading to a cytotoxic adduct accumulation in the cell milieu. […] Further studies to elucidate the possible mechanisms of action involved will be performed.
To investigate the contribution of ⋅NO to the antiproliferative activity of the studied compounds, we tested their effect on T24 bladder cancer cell growth in the absence and presence of Hb. Cells were seeded into a 96-well plate at 8 × 10^3 cells per well and were allowed to attach for 24 h. […] Then, the antiproliferative activity was assessed by the SRB assay in at least three independent experiments. […]

HeLa (Cervix) = test system: HeLa (Cervix); set-up: method as in PMID 31356736; conditions: cited from earlier work
SW1573 (Lung) = test system: SW1573 (Lung); set-up: method as in PMID 31356736; conditions: cited from earlier work
HaCaT cells [4] = test system: HaCaT cells; set-up: method as in PMID 30489292; conditions: HaCaT human keratinocytes; cited from earlier work

CC(C)(C)Nc1c(-c2ccc(Oc3no[n+]([O-])c3S(=O)(=O)c3ccccc3)cc2)nc2ccccn12 [12c, 4-(4-(3-(tert-butylamino)imidazo[1,2-a]pyridin-2-yl)phenoxy)-3-(phenylsulfonyl)-1,2,5-oxadiazole 2-oxide]
GI50 (HaCaT cells [1]): 5.22 µM
GI50 (LNCaP cells; Homo sapiens): 24.2 µM
GI50 (T24 cells [2]; Homo sapiens, T-24, 48 h): 2.99 µM

O=Cc1cccc(Oc2no[n+]([O-])c2S(=O)(=O)c2ccccc2)c1 [11a, reference compound]
GI50 (HaCaT cells [1]): 7.83 µM
GI50 (LNCaP cells; Homo sapiens): 24.5 µM
GI50 (T24 cells [2]; Homo sapiens, T-24, 48 h): 7.08 µM

Cc1ccc(N(C(=O)c2cccc(O)c2)C(C(=O)NC(C)(C)C)c2ccccc2)cc1 (stereo not drawn) [7a, N-(1-(tert-butylaminocarbonyl)-1-phenylmethyl)-N-(4-methylphenyl)-3-hydroxyphenyl carboxamide]
GI50 (LNCaP cells; Homo sapiens): > 100 µM
GI50 (T24 cells [2]; Homo sapiens, T-24, 48 h): > 100 µM

CC(C)(C)Nc1c(-c2ccccc2Oc2no[n+]([O-])c2S(=O)(=O)c2ccccc2)nc2ccccn12 [12b, 4-(2-(3-(tert-butylamino)imidazo[1,2-a]pyridin-2-yl)phenoxy)-3-(phenylsulfonyl)-1,2,5-oxadiazole 2-oxide]
GI50 (HaCaT cells [1]): 3.11 µM
GI50 (LNCaP cells; Homo sapiens): 7.7 µM
GI50 T24 (T24 cells [2]; 48 h): sub-micromolar range
GI50 (T24 cells [2]; Homo sapiens, T-24, 48 h): 0.85 µM

O=C(O)c1cccc(Oc2no[n+]([O-])c2S(=O)(=O)c2ccccc2)c1 [compound 3, reference compound]
GI50 (HaCaT cells [1]): 14.4 µM
GI50 (LNCaP cells; Homo sapiens): 32.5 µM
GI50 (T24 cells [2]; Homo sapiens, T-24, 48 h): 8.6 µM

CC(C)(C)Nc1c(-c2cccc(Oc3no[n+]([O-])c3S(=O)(=O)c3ccccc3)c2)nc2ccccn12 [12a, 4-(3-(3-(tert-butylamino)imidazo[1,2-a]pyridin-2-yl)phenoxy)-3-(phenylsulfonyl)-1,2,5-oxadiazole 2-oxide]
GI50 (HaCaT cells [1]): 7.44 µM
GI50 (LNCaP cells; Homo sapiens): 24.7 µM
GI50 (T24 cells [2]; Homo sapiens, T-24, 48 h): 1.76 µM

Cc1ccc(N(C(=O)c2ccc(Oc3no[n+]([O-])c3S(=O)(=O)c3ccccc3)cc2)C(C(=O)NC(C)(C)C)c2ccccc2)cc1 (stereo not drawn) [8c, N-[1-(tert-butylaminocarbonyl)-1-phenylmethyl]-N-(4-methylphenyl)-4-[3-(phenylsulfonyl)-[1,2,5]oxadiazol-4-yl N2-oxide]oxyphenylcarboxamide]
GI50 (HaCaT cells [1]): 4.62 µM
GI50 (LNCaP cells; Homo sapiens): 18.8 µM
GI50 (T24 cells [2]; Homo sapiens, T-24, 48 h): 2.18 µM

CCCCN(CC(=O)NC(C)(C)C)C(=O)c1cccc(Oc2no[n+]([O-])c2S(=O)(=O)c2ccccc2)c1 [8f, N-(1-(tert-butylaminocarbonyl)methyl)-N-(butyl)-3-[3-(phenylsulfonyl)-[1,2,5]oxadiazol-4-yl N2-oxide]oxyphenylcarboxamide]
GI50 (HaCaT cells [1]): 11.8 µM
GI50 (LNCaP cells; Homo sapiens): 29.9 µM
GI50 (T24 cells [2]; Homo sapiens, T-24, 48 h): 2.86 µM

Cc1ccc(N(C(=O)c2ccccc2Oc2no[n+]([O-])c2S(=O)(=O)c2ccccc2)C(C(=O)NC(C)(C)C)c2ccccc2)cc1 (stereo not drawn) [8b, N-[1-(tert-butylaminocarbonyl)-1-phenylmethyl]-N-(4-methylphenyl)-2-[3-(phenylsulfonyl)-[1,2,5]oxadiazol-4-yl N2-oxide]oxyphenylcarboxamide]
GI50 (HaCaT cells [1]): 3.78 µM
GI50 (LNCaP cells; Homo sapiens): 13.3 µM
GI50 (T24 cells [2]; Homo sapiens, T-24, 48 h): 1.83 µM

CC(C)(C)Nc1c(-c2cccc(O)c2)nc2ccccn12 [compound 10, N-tert-Butyl-2-(3-hydroxyphenyl)imidazo[1,2-a]pyridin-3-amine]
GI50 (LNCaP cells; Homo sapiens): > 100 µM
GI50 (T24 cells [2]; Homo sapiens, T-24, 48 h): > 100 µM

Cc1ccc(N(C(=O)c2cccc(Oc3no[n+]([O-])c3S(=O)(=O)c3ccccc3)c2)C(C(=O)NC(C)(C)C)c2ccccc2)cc1 (stereo not drawn) [Ugi-Fx (8a), N-[1-(tert-butylaminocarbonyl)-1-phenylmethyl]-N-(4-methylphenyl)-3-[3-(phenylsulfonyl)-[1,2,5]oxadiazol-4-yl N2-oxide]oxyphenylcarboxamide]
GI50 (WiDr (Colon)): 3 µM
GI50 (HaCaT cells [1]): 10.6 µM
GI50 (A549 (Lung)): 2.3 µM
GI50 (HBL-100 (Breast)): 0.23 µM
GI50 (T-47D (Breast)): 1.9 µM
Effect of hemoglobin on antiproliferative effect (cell growth inhibition) (T24 cells [3]): high antiproliferative activity even in the presence of a ⋅NO scavenger
GI50 (LNCaP cells; Homo sapiens): 20.2 µM
GI50 T24 (T24 cells [2]; 48 h): sub-micromolar range
GI50 (T24 cells [2]; Homo sapiens, T-24, 48 h): 0.73 µM
GI50 (HeLa (Cervix)): 1.8 µM
GI50 (SW1573 (Lung)): 0.021 µM

CC(C)(C)Nc1c(-c2cccc(Oc3no[n+]([O-])c3S(=O)(=O)c3ccccc3)c2)nc2sccn12 [12e, 4-(3-(5-(tert-butylamino)imidazo[2,1-b]thiazol-6-yl)phenoxy)-3-(phenylsulfonyl)-1,2,5-oxadiazole 2-oxide]
GI50 (HaCaT cells [1]): 9.01 µM
GI50 (LNCaP cells; Homo sapiens): 16.5 µM
GI50 T24 (T24 cells [2]; 48 h): sub-micromolar range
GI50 (T24 cells [2]; Homo sapiens, T-24, 48 h): 0.83 µM

Cc1ccc(N(C(=O)c2ccccc2)C(C(=O)NC(C)(C)C)c2cccc(Oc3no[n+]([O-])c3S(=O)(=O)c3ccccc3)c2)cc1 (stereo not drawn) [8g, N-(1-(tert-butylaminocarbonyl)-1-3-[3-(phenylsulfonyl)-[1,2,5]oxadiazol-4-yl N2-oxide]oxyphenylmethyl)-N-(4-methylphenyl)-phenylcarboxamide]
GI50 (HaCaT cells [1]): 4.99 µM
GI50 (LNCaP cells; Homo sapiens): 36.7 µM
GI50 (T24 cells [2]; Homo sapiens, T-24, 48 h): 1.7 µM

Cc1ccc(N(CC(=O)NC(C)(C)C)C(=O)c2cccc(Oc3no[n+]([O-])c3S(=O)(=O)c3ccccc3)c2)cc1 [8d, N-(1-(tert-butylaminocarbonyl)methyl)-N-(4-methylphenyl)-3-[3-(phenylsulfonyl)-[1,2,5]oxadiazol-4-yl N2-oxide]oxy phenylcarboxamide]
GI50 (HaCaT cells [1]): 9.99 µM
GI50 (LNCaP cells; Homo sapiens): 21.8 µM
GI50 (T24 cells [2]; Homo sapiens, T-24, 48 h): 2.1 µM

N.N.[Cl][Pt][Cl] [Cisplatin, cisplatin, reference compound]
GI50 (HaCaT cells [1]): 2.51 µM
GI50 (LNCaP cells): 20.3 µM
GI50 (T24 cells [2]; 48 h): 3.28 µM

O=S(=O)(c1ccccc1)c1no[n+]([O-])c1S(=O)(=O)c1ccccc1 [compound 2, 3,4-bis(phenylsulfonyl)furoxan]
GI50 (HaCaT cells [4]): 1.47 µM

CCCCN(C(=O)c1cccc(Oc2no[n+]([O-])c2S(=O)(=O)c2ccccc2)c1)C(C(=O)NC(C)(C)C)c1ccccc1 (stereo not drawn) [8e, N-(1-(tert-butylaminocarbonyl)-1-phenylmethyl)-N-(butyl)-3-[3-(phenylsulfonyl)-[1,2,5]oxadiazol-4-yl N2-oxide]oxyphenylcarboxamide]
GI50 (HaCaT cells [1]): 11.8 µM
GI50 (LNCaP cells; Homo sapiens): 21.8 µM
GI50 (T24 cells [2]; Homo sapiens, T-24, 48 h): 1.53 µM

CC(C)(C)Nc1c(-c2cccc(Oc3no[n+]([O-])c3S(=O)(=O)c3ccccc3)c2)nc2cnccn12 [12d, 4-(3-(3-(tert-butylamino)imidazo[1,2-a]pyrazin-2-yl)phenoxy)-3-(phenylsulfonyl)-1,2,5-oxadiazole 2-oxide]
GI50 (HaCaT cells [1]): 9.84 µM
GI50 (LNCaP cells; Homo sapiens): 8.13 µM
GI50 (T24 cells [2]; Homo sapiens, T-24, 48 h): 2.72 µM
